Experimental data as given in patent publication US20090208425A1, “TRANSMUCOSAL ADMINISTRATION OF 2,3-DIMETHOXY-5-METHYL-6-(10-HYDROXYDECYL)-1,4-BENZOQUINONE” (SANTHERA PHARMACEUTICALS (SCHWEIZ) AG, priority 2006, published 2009).
Where two headings read alike, the source gives them in different places.

How the values were obtained:
[1] = 536 patients, up to 360 mg idebenone t.i.d.; cited from earlier work
[2] = Pharmacokinetics after sublingual (oromucosal) vs. oral delivery of idebenone micro-emulsion in dogs; format: in vivo, Beagle dogs; conditions: for Cmax / Tmax / AUC(0-t): beagle, dog, mean; for AUC(0-t): read-out: AUC0-480 of idebenone (converted)
Description: Quantification of idebenone was performed by liquid chromatography (LC) coupled on-line with tandem mass spectrometry (MS/MS). Calibration samples were prepared in human plasma and quality control (QC) samples were prepared in dog plasma.
150 μl of dog plasma were treated with 10 μl of an EDTA solution, prepared by dissolution of 1245 mg EDTA-potassium salt in 33 ml of 1M NH4OAc, and 300 μl of Methanol. After vigorous shaking, samples were centrifuged for 45 minutes with 1960 RCF at 4° C. A 50 μl aliquot of the supernatant was injected into the LC-MS/MS system. All unknown, calibration and QC samples were subjected to the same assay procedure.
Idebenone was separated and quantified by HPLC-MS/MS: For HPLC, a Synergi™ 4μ MAX-RP (50×2 mm) column (Phenomenex, Schlieren, Switzerland) was used. Column temperature: 50° C. Mobile phase A: water+30 mM NH4OAc; mobile phase B: MeOH/H2O 100/3 (v/v)+30 mM NH4OAc, gradient elution (table 4). Flow: 250 μl/min and 400 μl/min.
Once separated, idebenone was quantified by ESI-MS/MS (API 4000, Perkin-Elmer-Europe BV, Rotkreuz, Switzerland) in positive mode.
Idebenone conjugates such as glucuronates and sulphates have been quantified after acidic hydrolysis as described by R. Artuch, C. Colomé, M. A. Vilaseca, A. Aracil. M. Pineda, J. Neurosci. Meth. 115 (2002), 63-66.
Plasma levels of idebenone were studied after the administration of a micro-emulsion, prepared as described in example 1, to dogs (n=3). The sublingual administration of 4 mg/kg was compared with 40 mg/kg oral administration in a cross-over design. Blood samples were collected for 8 hours after administration. Concentrations of idebenone in plasma were measured by HPLC-MS/MS as described in example 4 and pharmacokinetic parameters were calculated.
The pharmacokinetic analysis included maximum plasma concentration (Cmax), the time when maximum plasma concentration was observed (Tmax), and the area under the plasma concentrations versus time curve from time 0 h to 480 min (AUC0-480min). The relative bioavailability of idebenone after sublingual administration compared to the oral administration was calculated for each dog from normalized (1 mg/kg) AUC values. The AUC ratios of the metabolites were also calculated. In addition, Cmax ratios, normalized to a 1 mg/kg dose, were calculated.

[3] = First-pass hepatic metabolism of idebenone after oral administration; format: in vivo; conditions: after absorption in the gut (oral administration)
Description: As a lipophilic compound idebenone is well absorbed in the gastrointestinal tract after conventional oral administration, which is the normal route for administering said compound. Dosage forms such as tablets or capsules have been used in clinical trials and as marketed product. In the course of our investigations on the pharmacological profile of idebenone, we discovered that the compound, after being absorbed in the gut, is metabolized very quickly during its first passage through the liver (“first-pass-effect”). […] Hepatic metabolism of idebenone results in side chain oxidation, reduction of the quinone ring, sulphate and glucuronide conjugation and subsequent renal excretion. The high first-pass-effect leads to a fast reduction of pharmacologically active plasma levels of free idebenone. Because of this strong first pass metabolism, oral administration of idebenone requires high doses of the compound to achieve pharmacologically efficacious plasma levels in the body. Said high doses can result in unwanted side effects such as diarrhea.

[4] = 4 mg/kg oro-mucosal (sublingual), micro-emulsion of example 1, dogs n=3, plasma
[5] = 40 mg/kg oral (p.o.), dogs n=3, plasma
[6] = oromucosal (4 mg/kg) vs. oral (40 mg/kg), normalized to a 1 mg/kg dose, dogs

For COC1=C(OC)C(=O)C(CCCCCCCCCCO)=C(C)C1=O [idebenone, 2,3-dimethoxy-5-methyl-6-(10-hydroxydecyl)-1,4-benzoquinone], which “treatment emergent adverse events compared to placebo” value [1] is on record?
Its value is “no treatment emergent adverse events except some gastrointestinal irritations as well as a slight increase in orthopedic events”.

What about the Cmax [2, 4] of the same molecule?
The Cmax was 106 ng/mL.

And the Tmax [2, 4]?
Its Tmax is 6.3 min.

What about the AUC(0-t) [2, 4] of the same molecule?
Its AUC(0-t) is 21.1 ng·h/mL.

What about the Cmax [2, 5] of the same molecule?
The Cmax was 31.9 ng/mL.

And the Tmax [2, 5]?
The Tmax was 22.7 min.

What about the AUC(0-t) [2, 5] of the same molecule?
Its AUC(0-t) is 18 ng·h/mL.

What about the “AUC ratio, idebenone (normalized for dose)” value [2, 6] of the same molecule?
The value was 11.1.

And the “Cmax ratio, idebenone (normalized for dose)” value [2, 6]?
The value was 36.8.

What about the “idebenone metabolized during its first passage through the liver” value [3] of the same molecule?
The value was “more than 98%”.
